For series [1], the system named is BxPC-3 cells. The experiment in a line: Orthotopic pancreatic tumor mouse xenograft model. It counts as in vivo, mice (athymic nude mice). Set-up: key to Pancreatic tumor weight, vs vehicle / Bioluminescence imaging Area, vs vehicle / Bioluminescence imaging Average radiation, vs vehicle / Bioluminescence imaging Total flux, vs vehicle / Bioluminescence imaging Area (day 34), vs vehicle / Bioluminescence imaging Average radiation (day 34), vs vehicle / Bioluminescence imaging Total flux (day 34), vs vehicle / Body weight curves, vs vehicle / Body weight at sacrifice relative to Day −1 body weight, vs vehicle: ***: statistically significant difference with p-value <0.001; **: p-value <0.01; *: p-value <0.05; p-value <0.1; NS: Non-Significant. The settings on record: 60 mg/kg intraperitoneal every third day. On the procedure:
Animals were divided into four groups of 10 mice each which underwent the following treatment regime: Group 1, daily oral administration of vehicle comprising 1% (v/v) ethanol, 20% (v/v) PEG 400, 79% (v/v) acid solution and 0.4% (w/v) TWEEN™ 80 at a final pH of 3.1-3.3 (Control); Group 2, intraperitoneal administration of 60 mg/kg of Reference Compound gemcitabine every third day for four rounds followed by one week rest before repeating the dosing; Group 3, daily oral administration of 1 mg/kg of Test Compound VAL401; and Group 4, daily administration of 2 mg/kg Test Compound VAL401. Administration of Test and Reference Compounds began on Day 1 and continued until Day 33. Body weights of the animals were measured two times a week throughout the in-life phase and blood samples for PK analyses were collected from saphenous vein from all animals 2 hours after compound administration at study Day 24. […] The animals were sacrificed at Day 34. At the termination, brain tissues were collected and frozen. Tumors were weighed, measured in three dimensions followed by fixation and embedding in paraffin for possible histopathological assessment. Also spleen, liver and lungs were collected for possible analysis.
Statistical analysis was performed with statistical software R (version 3.1.2). The parameters with multiple measurements in different time points per animal were analyzed using mixed-effects models and model contrasts. […] The obtained p-values values were adjusted for multiple comparisons if necessary. The continuous valued end-point parameters were analyzed using parametric or non-parametric test. If the groups were normally distributed with equal variance, parametric one-way ANOVA followed by Tukey's HSD post hoc test was used. If the assumptions were not fulfilled as such or after data transform (e.g. logarithmic), nonparametric Kruskal-Wallis test followed by Mann-Whitney U test was used.

The next series has as its target T1, HSD10 (Homo sapiens, UniProt Q99714).
T1 construct: endogenous in cells; host or cells: PC3 cells
T1 sequence (Q99714 1-261): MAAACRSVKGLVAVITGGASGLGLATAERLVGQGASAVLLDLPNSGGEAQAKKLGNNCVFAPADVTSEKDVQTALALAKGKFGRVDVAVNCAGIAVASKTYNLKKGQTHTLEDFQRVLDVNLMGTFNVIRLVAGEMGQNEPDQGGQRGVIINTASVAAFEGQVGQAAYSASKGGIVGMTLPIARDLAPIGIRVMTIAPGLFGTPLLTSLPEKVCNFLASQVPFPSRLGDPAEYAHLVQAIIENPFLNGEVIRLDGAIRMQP
The experiment in a line: HSD10 Enzyme Inhibition Assay. It is filed as biochemical. The settings on record: 50 μM drug. The protocol:
An HSD10 inhibition assay was performed to determine the effect of several anti-psychotics on enzyme activity.
(§1) PC3 cells are from a cell line derived from a hormone refractory prostate cancer and are known to overexpress HSD10. […] Cells line tests were carried out in presence and absence of testosterone for comparison. After incubation in the drug treatment for 96 hours at 37° C., 5% CO2, the supernatant was removed from all wells of cells, and cells washed with 200 μL PBS.
(§2) After removal of the PBS, cell number was determined using a lysed cell LDH assay (CytoTox 96 Non-radioactive cytotoxicity assay (LDH Assay); Promega, Co., Madison Wis.). Cells were lysed with 0.9% Triton-X in PBS for 2 hours at 37° C., 5% CO2 and 50 μL of this cell lysate was transferred to a fresh 96 well plate. About 50 μL of CytoTox 96 assay reagent was added to the transferred cell lysate and this mixture was incubated at room temperature in the dark for 20 minutes. After the addition of 50 μL stop reagent, the optical absorbance was determined for each incubated mixture at 492 nm. […] The mean and standard error was calculated from at least 3 wells.

The subject of the next series is PC3 cells. The experiment in a line: Cell growth inhibition, lysed cell LDH assay, prostate cancer cell line. It is filed as cell-based. On the procedure: To determine whether Risperidone could be effective in inhibiting growth of cancer cells overexpressing HSD10, a lysed cell LDH assay was conducted using cells from a PC3 cell line.
as §1, §2
To determine the optimal concentration of Risperidone and CLA necessary to inhibit cell growth, a lysed cell LDH assay was conducted using various concentration of Risperidone and CLA. PC3 cells were cultured and a lysed cell LDH assay was conducted as described above, except that the various drug treatments evaluated contained either 0 μM, 12.5 μM, 25 μM, or 50 μM Risperidone in combination with 0 μM, 6.25 μM, 12.5 μM, 25 μM, 50 μM, or 100 μM CLA (see Table 3).
as §2, with “PBS from the cell cultures described above,” for “PBS,”, “assay.” for “assay (CytoTox 96 Non-radioactive cytotoxicity assay (LDH Assay); Promega, Co., Madison Wis.).”

For another series, the system named is A549 cells. The experiment in a line: Cell growth inhibition, lysed cell LDH assay, lung cancer cell line. It is filed as cell-based.
The next series relates to MCF7 cells. The experiment in a line: Cell growth inhibition, lysed cell LDH assay, breast cancer cell line. It is filed as cell-based. On the procedure: (§3) To determine whether Risperidone could be effective in inhibiting growth of cancer cells overexpressing HSD10, a lysed cell LDH assay was conducted using cells taken from a prostate cancer cell line, a lung cancer cell line, a breast cancer cell line, an ovarian cancer cell line, each of which was known to overexpress HSD10, and a non-cancerous cell line.
(§4) After incubation in the drug treatment for 96 hours at 37° C., 5% CO2, the supernatant was removed from all wells of cells, and cells washed with 200 μL PBS.
as §2, with “PBS from the cell cultures described above,” for “PBS,”, “assay.” for “assay (CytoTox 96 Non-radioactive cytotoxicity assay (LDH Assay); Promega, Co., Madison Wis.).”

The next series concerns OVCAR-3 cells. The experiment in a line: Cell growth inhibition, lysed cell LDH assay, ovarian cancer cell line. It counts as cell-based. On the procedure:
as §3, §4
as §2, with “PBS from the cell cultures described above,” for “PBS,”, “assay.” for “assay (CytoTox 96 Non-radioactive cytotoxicity assay (LDH Assay); Promega, Co., Madison Wis.).”

A further series concerns VERO cells. Briefly: Cell growth inhibition, lysed cell LDH assay, non-cancerous cell line. It counts as cell-based. On the procedure:
as §3, §4
as §2, with “PBS from the cell cultures described above,” for “PBS,”, “assay.” for “assay (CytoTox 96 Non-radioactive cytotoxicity assay (LDH Assay); Promega, Co., Madison Wis.).”

Series [2] deals with BxPC-3 cells. The experiment in a line: Resazurin-based cell viability assay, pancreatic cancer cell line. The settings on record: Homo sapiens, BXPC-3, read-out: growth inhibition of Bx-PC3 cells. The protocol: To determine whether Risperidone alone, or in combination with CLA could inhibit cell growth of cells taken from a pancreatic cancer cell line overexpressing HSD10, a resazurin-based cell viability assay was conducted on Bx-PC3 cells.
BxPC-3 cells are from a cell line derived from a human pancreatic adenocarcinoma and are known to overexpress HSD10. BxPC-3 cells were seeded at a density of 4,000 cells per well in a 384 well plate, and incubated at 37° C., 5% CO2 for 24 hours in standard growth media (RPMI nutrient media, 5% heat-inactivated Fetal Calf Serum, 2 mM L-Glutamine). The media was then removed by pipette and replaced with 50 μL BxPC-3 treatment media comprising 125 μM fatty acid-free BSA, 2 mM L-Glutamine and one of the following drug treatments: 0.1 μM, 2 μM, or 50 μM Risperidone; 0.1 μM, 2 μM, or 50 μM CLA; or 0.1 μM, 2 μM, or 50 μM of Risperidone and CLA (in equimolar amounts). After incubation in the drug treatment for 72 hours at 37° C., 5% CO2, viable cell number was determined using a resazurin-based cell viability assay (PRESTOBLUE®; Invitrogen, Carlsbad, Calif.). To each well, 7 μL of PRESTOBLUE® reagent was added and the plates incubated for 60 minutes at 37° C., 5% CO2. After incubation, the fluorescence intensity of each well was determined using a microplate reader by excitation and 570 nm and recording emission at 600 nm. The percentage of viable cell number was calculated by normalizing the experimental fluorescence intensity, where 100% is set to cells receiving no drug treatment (cells metabolizing at optimal rate), and 0% is set to readings from cells treated with Paclitaxel (cells not metabolizing at all due to their destruction by anti-cancer drug). A value under 50% could be considered a useful indication of potential efficacy.
For orientation: Alamar Blue is a resazurin reagent that responds to reducing activity.

The test system of the next series is PC-3M-luc cells. The experiment in a line: Orthotopic prostate tumor mouse xenograft model. The settings on record: single drug.
The mark [3] stands for this setting: 50 μM Risperidone and/or 50 μM CLA, 1 μM Testosterone (T) where added, 96 hours.

The text below walks through data of US10111877B2, “Modulators of androgen synthesis” (Tangent Reprofiling Limited, priority 2012, dated 2018).

Each structure is given as a SMILES string. Read-outs that look alike come from different tables or passages of the source.

Protocol for A549 cells: To determine whether Risperidone alone, or in combination with CLA could inhibit cell growth of cells taken from a lung cancer cell line overexpressing HSD10, A549 cells were seeded at a density of 2,000 cells per well in a 96 well plate, and incubated at 37° C., 5% CO2 for 48 hours in standard growth media (DMEM nutrient media, 10% Fetal Calf Serum, 2 mM L-Glutamine). The media was then removed by pipette and replaced with the appropriate drug treatment as follows: 50 μM Risperidone in A459 treatment media (DMEM nutrient media, 125 uM fatty acid free BSA, 2 mM L-Glutamine); 50 μM CLA in A459 treatment media; 50 μM Risperidone and 50 μM CLA in A459 treatment media; 50 μM Risperidone and 1 μM Testosterone in A459 treatment media; 50 μM Risperidone, 50 μM CLA, and 1 μM Testosterone in A459 treatment media. After incubation in the drug treatment for 96 hours at 37° C., 5% CO2, the supernatant was removed from all wells of cells, and cells washed with 200 μL PBS.
After removal of the PBS from the cell cultures described above, cell number was determined using a lysed cell LDH assay. Cells were lysed with 0.9% Triton-X in PBS for 2 hours at 37° C., 5% CO2 and 50 μL of this cell lysate was transferred to a fresh 96 well plate. About 50 μL of CytoTox 96 assay reagent was added to the transferred cell lysate and this mixture was incubated at room temperature in the dark for 20 minutes. After the addition of 50 μL stop reagent, the optical absorbance was determined for each incubated mixture at 492 nm. The percentage cell number was calculated by normalizing the experimental counts, where 100% is set to cells receiving no drug treatment, and 0% is set to readings from wells containing no cells. The mean and standard error was calculated from at least 3 wells.
Protocol for PC-3M-luc cells: Immunodeficeint male mice (athymic nude mice) were acclimated to the laboratory for at least one week prior to implantation of tumor. PC-3M-luc cells obtained directly from in vitro culture were then injected into the prostate on Day 0. Animals were divided into six groups of 12 mice each. Primary tumor size and metastases were assessed by bioluminescence measurements on day 6, 13, 20, 27, 34, and 40. On day 7 a five week treatment regime was initiated. Both individual drug and high and low dose combination were examined by administering the drugs twice daily on an individual body weight basis using a dose escalation protocol (Table 7). If tumors grew above a pre-determined level, or mice lost more than 10% of bodyweight, they were culled. The primary tumor was excised, weighed and measured. Individual organs were imaged to assess metastatic burden.

Take `Nc1ccn([C@@H]2O[C@H](CO)[C@@H](O)C2(F)F)c(=O)n1` [Gemcitabine, gemcitabine]: in the series with BxPC-3 cells [1], the “Bioluminescence imaging Area (day 34), vs vehicle” value is reported as “NS”; the “Bioluminescence imaging Area, vs vehicle” value was “NS”; the “Bioluminescence imaging Average radiation (day 34), vs vehicle” value was “NS”; the “Bioluminescence imaging Average radiation, vs vehicle” value is “NS”. In the series with BxPC-3 cells [1], the “Bioluminescence imaging Total flux (day 34), vs vehicle” value is listed as “NS”; the “Bioluminescence imaging Total flux, vs vehicle” value is recorded as “NS”; the “Body weight at sacrifice relative to Day −1 body weight, vs vehicle” value is on record as “NS”; the “Body weight curves, vs vehicle” value is “NS”. In addition, in the series on BxPC-3 cells [1], the “Pancreatic tumor volume, vs vehicle” value is “↓**” and the “Pancreatic tumor weight, vs vehicle” value is “NS”.
As for `Cc1nc2n(c(=O)c1CCN1CCC(c3noc4cc(F)ccc34)CC1)CCCC2` [Risperidone, 3-[2-[4-(6-fluoro-1,2-benzoxazol-3-yl)piperidin-1-yl]ethyl]-2-methyl-6,7,8,9-tetrahydropyrido[1,2-a]pyrimidin-4-one], on HSD10, the “Oxidative Activity Rate” value was determined as 1.0 µM/min. On HSD10, the “Reductive Activity Rate” value worked out at 3.3 µM/min. In addition, the inhibition at 50 µM on HSD10 (read-out: Oxidative Activity Drug Inhibition) is 88%; at HSD10 (read-out: Reductive Activity Drug Inhibition), 63%; in the series with PC3 cells (Homo sapiens, PC-3, 50 μM), approximately 50%; with A549 cells (Homo sapiens, A549, read-out: growth inhibition of A549 cells), more than 60%; in the series on MCF7 cells (Homo sapiens, 50 μM), approximately 65%; in the series with OVCAR-3 cells (Homo sapiens, 50 μM), approximately 35%. For the same compound, in the series with BxPC-3 cells [2], the inhibition at 50 µM was approximately 60%. Further, the “Percentage of Lysed Cells” value with PC3 cells (12.5 μM Risperidone, 0 μM CLA (Table 4)) was found to be 81 ± 3.6%; with PC3 cells (12.5 μM of each drug, 96 hours, 100% = no drug treatment (Table 3)) it was 102 ± 5.4%; in the series with PC3 cells (25 μM Risperidone, 0 μM CLA (Table 4)), 73 ± 2.2%; in the series with PC3 cells (25 μM of each drug, 96 hours, 100% = no drug treatment (Table 3)), 93 ± 0.51%; in the series with PC3 cells (50 μM Risperidone, 0 μM CLA (Table 4)), 79 ± 0.7%; in the series on PC3 cells (50 μM of each drug, 96 hours, 100% = no drug treatment (Table 3)), 52 ± 0.22%. Also, the “Percentage of Lysed Cells” value in the series with PC3 cells (PC3, 50 μM Risperidone and/or 50 μM CLA, 1 μM Testosterone (T) where added, 96 hours (Table 5)) was found to be 52 ± 1.7%; in the series on A549 cells (A549, 50 μM Risperidone and/or 50 μM CLA, 1 μM Testosterone (T) where added, 96 hours), 38 ± 1.9%; in the series with MCF7 cells (setting [3]), 35 ± 2.4%; in the series with OVCAR-3 cells (setting [3]), 64 ± 0.4%; in the series with VERO cells (VERO, 50 μM Risperidone and/or 50 μM CLA, 1 μM Testosterone (T) where added, 96 hours), 94 ± 1.7%. The “growth inhibition of PC3 cells” value with PC3 cells (either 25 μM or 50 μM Risperidone alone (Table 4 experiment)) is reported as 20-30%. The “effect on growth of cells from the non-cancerous cell line VERO” value in the series on VERO cells (50 μM) was “neither Risperidone nor CLA had any measurable effect”. For the same compound, in the series with PC-3M-luc cells (by Day 40), the “body weight throughout the study” value is recorded as “maintained a constant weight”. Besides, in the series on PC-3M-luc cells (by day 34), the animal loss result is “about 10%”. Also, the “Tumor Growth Inhibition” value with PC-3M-luc cells (calculated on Day 34, dosing per Table 7) is given as 16%. Besides, the “Animal Survival (overall survivorship)” value in the series on PC-3M-luc cells (day 40, dosing per Table 7) stood at 33%.

As usually defined, the inhibition is the change of the read-out against control, counted positive when it falls.
